Measurements published in the CheMixHub viscosity set.

Assay: xn = mol fraction of the nth substance listed

O=S(=O)([O-])[O-].[Mg+2] + O
viscosity [mPa·s]
Details | 308.15 K | 313.15 K | 323.15 K
101.3 kPa, x1 = 0.00112 | 0.74 | 0.6745 | 0.5642
101.3 kPa, x1 = 0.002247 | 0.7982 | 0.7215 | 0.605
101.3 kPa, x1 = 0.004484 | 0.8401 | 0.76 | 0.6392
101.3 kPa, x1 = 0.008927 | 0.942 | 0.8575 | 0.733
101.3 kPa, x1 = 0.0177 | 1.094 | 0.955 | 0.8368
101.33 kPa, x1 = 0.000905 | 0.7405 | 0.675 | 0.5648
101.33 kPa, x1 = 0.002718 | 0.7988 | 0.722 | 0.6054
101.33 kPa, x1 = 0.00453 | 0.8405 | 0.7605 | –
101.33 kPa, x1 = 0.006344 | 0.889 | 0.8025 | 0.6695
101.33 kPa, x1 = 0.008159 | 0.942 | 0.858 | 0.7335

ClCCCCl + CCCCO
viscosity [mPa·s], 101 kPa
Details | x1 = 0.0958 | x1 = 0.2016 | x1 = 0.3004 | x1 = 0.3983 | x1 = 0.5002 | x1 = 0.5993 | x1 = 0.6997 | x1 = 0.7997 | x1 = 0.9
298.15 K | 2.139 | 1.773 | 1.512 | 1.32 | 1.177 | 1.071 | 0.9963 | 0.9461 | 0.9256
313.15 K | 1.488 | 1.261 | 1.101 | 0.9831 | 0.8935 | 0.8317 | 0.7876 | 0.76 | 0.7528

Cc1ccc(C(C)C)c(O)c1 + CCCCCCCCCC(=O)O
100 kPa, x2 = 0.5
Details | viscosity [mPa·s]
293.15 K | 15.28
298.15 K | 12.16
303.15 K | 9.86
308.15 K | 8.12
313.15 K | 6.78
318.15 K | 5.74
323.15 K | 4.91

CC[N+](CC)(CC)CC.O=C([O-])CCCC(=O)O + O=S1(=O)CCCC1
101 kPa, x1 = 0.23
Details | viscosity [mPa·s]
303.15 K | 150.1
313.15 K | 90
323.15 K | 58.9

CCCN(CCC)CCC + CCC(=O)O
viscosity [mPa·s], 101 kPa
Details | x2 = 0.1 | x2 = 0.4 | x2 = 0.5 | x2 = 0.6 | x2 = 0.7 | x2 = 0.75 | x2 = 0.775 | x2 = 0.8 | x2 = 0.9
293.15 K | 0.734 | 4.43 | 5.62 | 5.97 | 13.95 | 20.55 | 23.47 | 23.75 | 8.57
298.15 K | 0.664 | 3.85 | 5.12 | 5.22 | 11.2 | 16.25 | 18.67 | 18.96 | 7.5
303.15 K | 0.589 | 3.5 | 4.35 | 4.5 | 9.2 | 13.02 | 15 | 15.59 | 6.47
308.15 K | 0.54 | 3.1 | 3.75 | 3.8 | 7.7 | 10.85 | 12.22 | 12.77 | 5.81
313.15 K | 0.51 | 2.8 | 3.62 | 3.35 | 6.52 | 9 | 10.32 | 10.76 | 5.04
318.15 K | 0.499 | 2.45 | 3.03 | 3 | 5.57 | 7.62 | 8.68 | 8.96 | 4.4
323.15 K | 0.464 | 2.22 | 2.75 | 2.67 | 4.82 | 6.46 | 7.44 | 7.72 | 4.05

CCCC[NH3+].O=[N+]([O-])[O-] + O
Details | viscosity [mPa·s]
298.15 K, 101 kPa, x1 = 0.9022 | 65.05

CCCCCCCCCCCCCC[P+](CCCCCC)(CCCCCC)CCCCCC.c1ccc2[n-]cnc2c1 + O=C=O
Details | viscosity [mPa·s]
298.15 K, 100 kPa, x2 = 0.545 | 388

CCCC[NH3+].O=[N+]([O-])[O-] + CCCO
Details | viscosity [mPa·s]
293.15 K, 101 kPa, x1 = 0.9008 | 83.35

CCCN(CCC)CCC + CCC(C)O
303.15 K, 101 kPa
Details | viscosity [mPa·s]
x1 = 0.009049 | 2.448
x1 = 0.02003 | 2.423
x1 = 0.02982 | 2.4
x1 = 0.04 | 2.379
x1 = 0.05207 | 2.352
x1 = 0.06138 | 2.332
x1 = 0.06704 | 2.317
x1 = 0.07865 | 2.291
x1 = 0.09178 | 2.264
